Measurements as given in ChEMBL document CHEMBL3508693 (2016).

Assays:
[1] = Biliary elimination of aliskiren following single intravenous dose of [14C] aliskiren hemifumarate at 10 mg.Kg-1 level in mouse; type: ADME, organism-based, TgRasH2, Bile; details: in vivo
[2] = Tmax of radioactivity following repeated oral administration of [14C] aliskiren hemifumarate at 100 mg.Kg-1 level studied after 2h of dosing on day 1 in rat; type: ADME, organism-based, Albino HAN:WIST; details: in vivo
[3] = Excretion of radioactivity (0-96h) in urine following single intravenous dose of 10 mg.Kg-1 [14C] aliskiren hemifumarate in rat; type: ADME, organism-based, Albino HAN:WIST; details: in vivo
[4] = Excretion of radioactivity (24-48h) in faeces following single intravenous dose of 10 mg.Kg-1 [14C] aliskiren hemifumarate in mouse; type: ADME, organism-based, TgRasH2, Feces; details: in vivo
[5] = Excretion (0-96h) of 14C-radioactivity in urine following single oral dose of 300 mg [14C]SPP100 studied in healthy men; type: ADME, organism-based; details: human, in vivo, at 300 mg
[6] = Cmax of [14C] aliskiren hemifumarate following single oral dose of [14C] aliskiren hemifumarate at 500 mg.Kg-1 level in mouse; type: ADME, organism-based, TgRasH2, Plasma; details: in vivo
[7] = Mean excretion of radioactivity (48-72h) in urine and faeces following single oral dose of 500 mg.Kg-1 [14C] aliskiren hemifumarate in mouse; type: ADME, organism-based, TgRasH2, Urine/Feces; details: in vivo
[8] = Concentration of radioactivity in the colon wall following repeated oral administration of [14C] aliskiren hemifumarate at 100 mg.Kg-1 level studied at 2h after 3rd dose in rat; type: ADME, organism-based, Albino HAN:WIST; details: in vivo
[9] = Excretion (168h) of radioactivity in urine following intravenous administration of [14C] aliskiren hemifumarate at 10 mg.Kg-1 level in rat; type: ADME, organism-based, Lister-Hooded; details: in vivo
[10] = Concentration of radioactivity in the liver following repeated oral administration of [14C] aliskiren hemifumarate at 100 mg.Kg-1 level studied at 24h after 10th dose in rat; type: ADME, organism-based, Albino HAN:WIST; details: in vivo
[11] = Mean excretion of radioactivity (0-24h) in urine and faeces following single intravenous dose of 10 mg.Kg-1 [14C] aliskiren hemifumarate in rat; type: ADME, organism-based, Albino HAN:WIST, Urine/Feces; details: in vivo
[12] = Plasma clearance (0-168h) of unlabeled aliskiren hemifumarate following single intravenous administration of aliskiren hemifumarate at 1 mg.Kg-1 level in marmoset; type: ADME, organism-based, Callithrix jacchus; details: in vivo
[13] = Tmax of aliskiren hemifumarate following 2 week oral dosing of aliskiren hemifumarate at 50 mg.Kg-1 level studied on day 14 in male Callithrix jacchus; type: ADME, organism-based; details: marmoset, plasma
[14] = Cmax/dose (0-96h) of unlabeled aliskiren hemifumarate following intravenous administration of aliskiren hemifumarate at 10 mg.Kg-1 level in rat; type: ADME, organism-based, Albino HAN:WIST, Plasma; details: in vivo
[15] = Cmax/dose of aliskiren hemifumarate following 4 week oral dietary dosing of aliskiren hemifumarate at 1000 mg.Kg-1 level in male mouse; type: ADME, organism-based, CB6F1-TGrasH2; details: in vivo, 672 h
[16] = Effect of 4 week oral dietary dosing of aliskiren hemifumarate at 2000 mg.Kg-1 level on spermatogenesis in male mouse; type: toxicity, organism-based, CB6F1-TGrasH2, Testis; details: in vivo, 672 h
[17] = Effect of 2 week oral dosing of aliskiren hemifumarate at 10 mg.Kg-1 level on hematological parameter values in female Callithrix jacchus; type: toxicity, organism-based, Plasma; details: marmoset, in vivo, 336 h
[18] = Effect of 4 week oral dietary dosing of aliskiren hemifumarate at 1500 mg.Kg-1 level on spermatogenesis in male mouse; type: toxicity, organism-based, CB6F1-TGrasH2, Testis; details: in vivo, 672 h
[19] = AUCspec of aliskiren hemifumarate following 2 week oral dosing of aliskiren hemifumarate at 50 mg.Kg-1 level studied on day 14 in male Callithrix jacchus; type: ADME, organism-based, Plasma; details: marmoset, in vivo, 336 h
[20] = Cmax of aliskiren hemifumarate following repeated oral administration of [14C] aliskiren hemifumarate at 100 mg.Kg-1 level studied after 2h of dosing on day 1 in rat; type: ADME, organism-based, Albino HAN:WIST; details: in vivo, read-out: Cmax(1)
[21] = AUC infinity of aliskiren hemifumarate following 2 week oral dosing of aliskiren hemifumarate at 100 mg.Kg-1 level studied on day 1 in male Callithrix jacchus; type: ADME, organism-based; details: marmoset, plasma, read-out: AUC infinity
[22] = Cmax of aliskiren hemifumarate following 4 week oral dietary dosing of aliskiren hemifumarate at 1000 mg.Kg-1 level in female mouse; type: ADME, organism-based; details: CB6F1-TGrasH2, mouse, in vivo
[23] = Cmaxspec of aliskiren hemifumarate following 2 week oral dosing of aliskiren hemifumarate at 100 mg.Kg-1 level studied on day 1 in male Callithrix jacchus; type: ADME, organism-based, Plasma; details: marmoset, in vivo, 336 h
[24] = AUC/dose (0-168h) of unlabeled aliskiren hemifumarate following single oral administration of aliskiren hemifumarate at 3 mg.Kg-1 level in marmoset; type: ADME, organism-based, Callithrix jacchus, Plasma; details: in vivo
[25] = Cmax/dose of aliskiren hemifumarate following 4 week oral dietary dosing of aliskiren hemifumarate at 500 mg.Kg-1 level in male mouse; type: ADME, organism-based, CB6F1-TGrasH2; details: in vivo, 672 h
[26] = Tmax of aliskiren hemifumarate following 2 week oral dosing of aliskiren hemifumarate at 50 mg.Kg-1 level studied on day 1 in male Callithrix jacchus; type: ADME, organism-based; details: marmoset, plasma
[27] = Effect of 2 week oral dosing of aliskiren hemifumarate at 50 mg.Kg-1 level on hematological parameter values in male Callithrix jacchus; type: toxicity, organism-based, Plasma; details: marmoset, in vivo, 336 h
[28] = Cmax/dose of aliskiren hemifumarate following 4 week oral dietary dosing of aliskiren hemifumarate at 1500 mg.Kg-1 level in female mouse; type: ADME, organism-based, CB6F1-TGrasH2; details: in vivo, 672 h
[29] = AUCspec of aliskiren hemifumarate following 2 week oral dosing of aliskiren hemifumarate at 100 mg.Kg-1 level studied on day 1 in female Callithrix jacchus; type: ADME, organism-based, Plasma; details: marmoset, in vivo, 336 h
[30] = % of radioactivity recovered as aliskiren in plasma following intravenous administration of [14C] aliskiren hemifumarate at 10 mg.Kg-1 level in rat; type: ADME, organism-based, Albino HAN:WIST; details: in vivo
CYP2A6 = biological target: T1, CYP2A6 (Homo sapiens, UniProt P11509); assay: Inhibitory activity of 200 uM SPP100 on 37 Pmoles of cDNA-derived CYP2A6 enzyme in microsome prepared from human lymphoblastoid cell line; type: ADME, microsomes; set-up: conc 200 uM, interact cpd conc 3 uM; details: probe coumarine
T1 sequence (P11509 whole entry): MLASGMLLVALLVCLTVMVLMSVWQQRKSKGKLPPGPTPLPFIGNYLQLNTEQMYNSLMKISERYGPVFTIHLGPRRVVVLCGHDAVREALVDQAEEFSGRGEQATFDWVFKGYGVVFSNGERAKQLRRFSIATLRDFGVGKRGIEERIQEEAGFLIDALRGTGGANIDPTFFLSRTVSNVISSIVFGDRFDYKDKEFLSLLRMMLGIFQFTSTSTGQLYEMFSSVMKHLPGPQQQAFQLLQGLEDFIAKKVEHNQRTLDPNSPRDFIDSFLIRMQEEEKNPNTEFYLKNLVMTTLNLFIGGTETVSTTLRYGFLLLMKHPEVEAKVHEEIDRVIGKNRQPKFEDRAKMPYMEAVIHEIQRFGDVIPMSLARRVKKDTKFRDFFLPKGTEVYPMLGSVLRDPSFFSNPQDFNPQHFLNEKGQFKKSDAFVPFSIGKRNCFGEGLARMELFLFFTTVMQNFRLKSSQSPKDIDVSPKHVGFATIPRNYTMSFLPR

[31] = Excretion (0-72h) of aliskiren in faeces following oral administration of [14C] aliskiren hemifumarate at 3 mg.Kg-1 level in marmoset; type: ADME, organism-based, Callithrix jacchus, Feces; details: in vivo
[32] = AUC of SPP100 following single intravenous dose of [14C] aliskiren hemifumarate at 1 mg.Kg-1 level in marmoset; type: ADME, organism-based, Callithrix jacchus, Plasma; details: in vivo
CYP2D6 = CYP2D6 (Homo sapiens, UniProt P10635); assay: Inhibitory activity of 200 µM SPP100 on cDNA-derived CYP2D6 enzyme in microsome prepared from human lymphoblastoid cell line; type: ADME, microsomes; set-up: conc 200 µM, interact cpd conc 10 uM; details: probe bufuralol (10 uM)
Chain of CYP2D6 (P10635 whole entry): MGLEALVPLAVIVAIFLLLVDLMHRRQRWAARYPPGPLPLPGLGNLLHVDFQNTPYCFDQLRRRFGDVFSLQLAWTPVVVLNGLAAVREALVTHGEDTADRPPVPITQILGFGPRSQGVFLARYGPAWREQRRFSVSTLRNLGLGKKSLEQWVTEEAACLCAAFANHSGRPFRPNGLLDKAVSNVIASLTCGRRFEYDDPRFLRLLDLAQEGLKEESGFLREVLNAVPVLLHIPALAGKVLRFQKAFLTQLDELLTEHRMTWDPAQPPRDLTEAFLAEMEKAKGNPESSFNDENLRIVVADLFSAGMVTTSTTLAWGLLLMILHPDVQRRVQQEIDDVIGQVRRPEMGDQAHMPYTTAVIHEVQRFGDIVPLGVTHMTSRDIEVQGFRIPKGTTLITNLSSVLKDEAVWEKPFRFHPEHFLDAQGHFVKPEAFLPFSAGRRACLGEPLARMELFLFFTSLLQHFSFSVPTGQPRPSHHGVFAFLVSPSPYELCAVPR

COCCCOc1cc(C[C@@H](C[C@H](N)[C@@H](O)C[C@H](C(=O)NCC([14CH3])([14CH3])C(N)=O)C(C)C)C(C)C)ccc1OC.O=C(O)/C=C/C(=O)O
Radiolabel recovery [1]: OUTCOME = Observed, VALUE = Elimination of aliskiren occurred mainly via the biliary or faecal route | Tmax(1) [2]: 2 h | Radiolabel recovery [3]: 94.4% | Radiolabel recovery [4]: 5.69% | Radiolabel recovery [5]: 0.57% | Cmax [6]: 2170 nM | Radiolabel recovery [7]: 9.33% | Radiolabel recovery [8]: OUTCOME = Observed, VALUE = Highest radioactivity concentration was observed | Radiolabel recovery [9]: 10.4% | Radiolabel recovery [10]: OUTCOME = Detected | Radiolabel recovery [11]: 58.6%

COCCCOc1cc(C[C@@H](C[C@H](N)[C@@H](O)C[C@H](C(=O)NCC(C)(C)C(N)=O)C(C)C)C(C)C)ccc1OC.COCCCOc1cc(C[C@@H](C[C@H](N)[C@@H](O)C[C@H](C(=O)NCC(C)(C)C(N)=O)C(C)C)C(C)C)ccc1OC.O=C(O)/C=C/C(=O)O [ALISKIREN FUMARATE]
Plasma clearance [12]: 0.036 L·h/kg | Tmax [13]: 2 h | Cmax normalised [14]: 2.92 (umol/L)/(mg/kg) | Cmax normalised [15]: 0.879 (ng/mL)/(mg/kg/day) | Change in spermatogenesis [16]: OUTCOME = No abnormalities. No animals died during the study. | Change in hematology [17]: OUTCOME = Hematological parameter values did not differ from control values. No animals died during the study. | Change in spermatogenesis [18]: OUTCOME = No abnormalities. No animals died during the study. | AUC normalised [19]: 2.14 ((ug.h.ml-1)/(mg/kg) | Cmax [20]: 639 nM | AUC(0-inf) [21]: 103 µg·h/mL | Cmax [22]: 167 ng/mL | Cmax normalised [23]: 0.072 (ug/ml)/(mg/kg) | AUC normalised [24]: 1.52 (umol.h/L)/(mg/kg) | Cmax normalised [25]: 0.624 (ng/mL)/(mg/kg/day) | Tmax [26]: 1 h | Change in hematology [27]: OUTCOME = Hematological parameter values did not differ from control values. No animals died during the study. | Cmax normalised [28]: 0.68 (ng/mL)/(mg/kg/day) | AUC normalised [29]: 0.84 ((ug.h.ml-1)/(mg/kg)

COCCCOc1cc(C[C@@H](C[C@H](N)[C@@H](O)C[C@H](C(=O)NCC(C)(C)C(N)=O)C(C)C)C(C)C)ccc1OC
Compound recovery [30]: > 40% | inhibition at 200 µM (CYP2A6): 2.6% | Compound recovery [31]: 78% | AUC [32]: 23.806 µg·h/mL | inhibition at 200 uM (CYP2D6): 37%
